Experiments:
[1] = molecular target: purified Z-AAT protein from human plasma (Homo sapiens (Human), UniProt P01009, E366K); assay: Biochemical Assay (Z-AAT Elastase Activity Assay); conditions: purified Z-AAT pre-incubated with compound 1 hour, then human neutrophil elastase and fluorescent substrate
From the text: B. Biochemical Assay (Z-AAT Elastase Activity Assay)
This assay measured the modulation of Compounds 1-227 on Z-AAT SERpIN activity using purified Z-AAT protein and purified human neutrophil elastase (hNE). Normally, when active monomeric Z-AAT encounters a protease such as trypsin or elastase, it forms a 1:1 covalent “suicide” complex in which both the AAT and protease are irreversibly inactivated. However, compounds binding to Z-AAT can lead to a decrease in SERpIN activity. In such cases, when a protease encounters compound-bound Z-AAT, the protease cleaves and inactivates Z-AAT without itself being inactivated.
Reagents • PBS buffer (media prep)+0.01% BRIJ35 detergent (Calbiochem catalog #203728) Opti-MEM media (Fisher 11058-021) • Human neutrophil elastase (hNE, Athens Research #16-14-051200) • 3.4 μM stock (0.1 mg/mL) prepared in 50 mM Na Acetate, pH 5.5, 150 mM NaCl, stored at −80° C. • Elastase substrate V (ES V, fluorescent peptide substrate MeOSuc-Ala-Ala-Pro-Val-AMC, Calbiochem catalog #324740) • 20 mM stock in DMSO, stored at −20° C. • Purified Z-AAT protein from human plasma; • 12.9 μM (0.67 mg/mL) Z-AAT Vertex Cambridge Sample 4942, from patient • #061-SSN, stored at −80 C
Plates • Corning 4511 (384 well black low volume)
Instruments • PerkinElmer® EnVision™
Pre-Incubation of Z-AAT with Compounds • 1. 7.5 μL of Z-AAT (20 nM) was incubated with compounds 1-227 in a GCA plate for 1 hour at room temperature
Addition of hNE • 1. 7.5 ul of HNE solution (3 nM in PBS+0.01% BRIJ35) added into GCA plate • 2. Incubate plate for 30 minutes to allow Z-AAT/HNE suicide complex formation.
Addition of Substrate and Read Plate on PE Envision • 1. 7.5 μL of substrate (300 μM solution of elastase substrate (ES V) in PBS+0.01% BRIJ35) dispensed per well into GCA plate • 2. Immediately read on Envision.

[2] = molecular target: NL20 human bronchial epithelial cells expressing human Z-AAT (Homo sapiens (Human), UniProt P01009, E366K); assay: AAT Function Assay (MSD Assay NL20-SI Cell Line); type: cell-based; conditions: functionally active AAT (AAT-hNE complex, MSD) in supernatant of NL20 cells expressing human Z-AAT; read-out: NL20 Functional EC50
Experimental: A. AAT Function Assay (MSD Assay NL20-SI Cell Line)
Alpha-1 antitrypsin (AAT) is a SERpIN (serine protease inhibitor) that inactivates enzymes by binding to them covalently. This assay measured the amount of functionally active AAT in a sample in the presence of the disclosed Compounds 1-227 by determining the ability of AAT to form an irreversible complex with human neutrophil Elastase (hNE). In practice, the sample (cell supernatant, blood sample, or other) was incubated with excess hNE to allow AAT-Elastase complex to be formed with all functional AAT in the sample. This complex was then captured to a microplate coated with an anti-AAT antibody. The complex captured to the plate was detected with a labeled anti-Elastase antibody and quantitated using a set of AAT standards spanning the concentration range present in the sample. Meso Scale Discovery (MSD) plate reader, Sulfo-tag labeling, and microplates were used to provide high sensitivity and wide dynamic range.
Instrument(S): • Meso Sector S600 • Bravo • Washer dispenser • Multidrop Combi
Day 1 Cell Culture • 1. Harvest NL20 human bronchial epithelial cells expressing human Z-AAT in OptiMEM™ containing Pen/Strep (P/S) • 2. Seed at 16,000 cells/well in 30 μL (384 well plate) • 3. Centrifuge plates briefly up to speed (1200 rpm) and place into 37° C. incubator overnight
Day 2: Compound Addition and Coating Plates with Capture Antibody
Compound Addition: • 1. Dispense 40 μL of OptiMEM™ (P/S) with doxycycline (1:1000 stock=0.1 μM final) to each well of the compound plate using a multidrop Combi in hood • 2. Remove cell plate from incubator, flip/blot and take immediately to Bravo to transfer compounds • 3. Return plates to incubator overnight
Coat MSD Plates • 1. Dilute capture antibody (Polyclonal Goat anti-AAT) to 5 μg/mL (1:200) in PBS (no BSA). • 2. Dispense 25 μL of diluted capture antibody into all wells of MSD 384-well High Bind plate using the Multidrop equipped with a standard cassette. • 3. Incubate overnight at 4° C.
Prepare Blocker A (BSA) Solutions • 1. Prepare solution of 5% MSD Blocker A (BSA) following the manufacturer's instructions. • 2. Further dilute the 5% MSD Blocker A in PBS to 1% (Blocker A) as needed.
Block Plates • 1. Wash plate 1× with 50 μL Wash buffer (PBS+0.5% Tween 20), and adds 35 μL 5% Block A buffer to block non-specific binding on washer dispenser • 2. Rotate plates on shaker for 1 hour at 600 rpm
Prepare M-AA T Standards • 1. Dilute M-AAT stock to 1.6 μg/mL in 1% BSA Blocker A (Stock in −70° C.); then prepare 12×1:2 serial dilutions in 1% Blocker A • 2. The top starting final concentration on MSD plate is 320 ng/mL. These dilutions correspond to a final concentration of 320, 160, 80, 40, 20, 10, 5, 2.5, 1.25, 0.625, 0.312, 0.156 ng/mL.
Dilution Plate • 1. Add 80 μL of 1% Assay buffer to all wells except columns 1/24 (standards) with Multidrop Combi • 2. Add diluted standards to columns 1 and 24 • 3. Centrifuge dilution plates 1200 rpm briefly
Cell Plate • 1. Aspirate columns which will have the standards from the cell plates in the hood using 16-pin aspirator
Prepare Human Neutrophil Elastase (hNE) • 1. Prepare 1 μg/mL Human Neutrophil Elastase by diluting in 1% Blocker A. • a. Small 100 μg vial—add 1 mL PBS (100 μg/mL) • i. This can then be diluted 1:100 in 1% Assay Buffer for a final 1 μg/mL concentration
MSD—add hNE (20 μL/well) • 1. After the MSD plate has blocked for at least 1 hour, wash plate 1× with 50 μL Wash buffer (PBS+0.5% Tween 20) and then add 20 μL hNE to each well
Bravo—Cell Plate—Dilution Plate—MSD Plate
Using the Bravo aspirate 10 μL from the cell plate, transfer to the dilution plate (9-fold dilution) • 1. Mix 25 μL 3×, then aspirate 5 μL, transfer to MSD plate (5-fold dilution) • 2. Mix 10 μL 3×. Total dilution is 45 fold. • 3. Shake plates at 600 rpm for 1.5 hours
Add Functional Detection hNE Antibody • 1. Wash plate 1× with wash buffer • 2. […]

purified Z-AAT protein from human plasma, sequence (P01009 25-418 E366K limits assumed): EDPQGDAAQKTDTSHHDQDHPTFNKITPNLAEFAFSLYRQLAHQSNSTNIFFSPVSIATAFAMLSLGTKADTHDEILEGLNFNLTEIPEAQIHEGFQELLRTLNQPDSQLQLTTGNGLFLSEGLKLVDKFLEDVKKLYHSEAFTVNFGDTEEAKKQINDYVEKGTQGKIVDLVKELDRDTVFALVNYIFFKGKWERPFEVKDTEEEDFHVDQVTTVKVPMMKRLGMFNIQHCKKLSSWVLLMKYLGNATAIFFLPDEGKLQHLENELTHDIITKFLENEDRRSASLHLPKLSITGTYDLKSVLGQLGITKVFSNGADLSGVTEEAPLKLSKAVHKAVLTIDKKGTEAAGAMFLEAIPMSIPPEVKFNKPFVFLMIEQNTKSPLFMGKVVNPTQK
NL20 human bronchial epithelial cells expressing human Z-AAT, sequence (P01009 25-418 E366K limits assumed): as above

Compound | IC50 [1] [µM] | EC50 [2] [nM]
Cc1cc(-n2c(C3CCOCC3)c(C[C@H]3C[C@@H](C(=O)O)C3)c3cc(O)ccc32)ccc1F [Compound 8] | > 30 | 500 to 2000
Cc1cc(-n2c(C3CCOCC3)c([C@H]3C[C@@](C(=O)O)(C(F)(F)F)C3)c3cc(O)ccc32)ccc1F [Compound 9] | > 5 | 500 to 2000
Cc1cc(-n2c(C3CCOCC3)c(CCC(F)(F)C(=O)O)c3cc(O)ccc32)ccc1F [Compound 10] | > 30 | > 2000
Cc1cc(-n2c(C3CCOCC3)c([C@H]3CC4(C[C@H](C(=O)O)C4)C3)c3cc(O)ccc32)ccc1F (stereo partly drawn) [Compound 11] | > 30 | < 500
Cc1cc(-n2c(C3CCOCC3)c([C@H]3CC4(C[C@H](C(=O)O)C4)C3)c3cc(O)ccc32)ccc1F (stereo partly drawn) [Compound 12] | > 5 | < 500
Cc1cc(-n2c(C3CCOCC3)c(CC3(C(=O)O)CCC3)c3cc(O)ccc32)ccc1F [Compound 13] | > 30 | > 2000
Cc1cc(-n2c(C3CCOCC3)c(CCC(C)(C)C(=O)O)c3cc(O)ccc32)ccc1F [Compound 14] | > 30 | 500 to 2000
CO[C@]1(C(=O)O)C[C@H](c2c(C3CCOCC3)n(-c3ccc(F)c(C)c3)c3ccc(O)cc32)C1 [Compound 15] | > 30 | > 2000
CO[C@]1(C(=O)O)C[C@@H](c2c(C3CCOCC3)n(-c3ccc(F)c(C)c3)c3ccc(O)cc32)C1 [Compound 16] | > 30 | > 2000
Cc1cc(-n2c(C3CCOCC3)c([C@H]3C[C@H](C(=O)O)C3)c3cc(O)ccc32)ccc1F [Compound 20] | > 30 | > 2000
Cc1cc(-n2c(C3CCOCC3)c([C@H]3C[C@@H](C(=O)O)C3)c3cc(O)ccc32)ccc1F [Compound 21] | > 30 | > 2000
Cc1cc(-n2c(C(C)C)c([C@H]3C[C@](C)(C(=O)O)C3)c3c(F)c(O)c(F)cc32)ccc1F [Compound 22] | 2 to 5 | 500 to 2000
Cc1cc(-n2c(C(C)C)c([C@H]3C[C@@](C)(C(=O)O)C3)c3c(F)c(O)c(F)cc32)ccc1F [Compound 23] | > 30 | 500 to 2000
O=C(O)[C@H]1CC[C@@H](c2c(C3CCOCC3)n(-c3ccc(F)c(Cl)c3)c3ccc(O)cc32)CC1 [Compound 24] | > 30 | > 2000
Cc1cc(-n2c(C3CCOCC3)c(CC3CC(C(=O)O)C3)c3cc(O)ccc32)ccc1F (stereo not drawn) [Compound 25] | > 30 | 500 to 2000
Cc1cc(-n2c(C(C)C)c(CC(C)C(=O)O)c3cc(O)ccc32)ccc1F (stereo not drawn) [Compound 26] | > 30 | > 2000
C[C@]1(C(=O)O)C[C@H](c2c(C3CCOCC3)n(-c3ccc(F)c(Cl)c3)c3ccc(O)cc32)C1 [Compound 27] | > 5 | 500 to 2000
C[C@]1(C(=O)O)C[C@@H](c2c(C3CCOCC3)n(-c3ccc(F)c(Cl)c3)c3ccc(O)cc32)C1 [Compound 28] | > 30 | > 2000
CC(C)(CCc1c(C2CCOCC2)n(-c2ccc(F)c(Cl)c2)c2ccc(O)cc12)C(=O)O [Compound 29] | > 30 | 500 to 2000
CC(C)(CCc1c(C2CCOCC2)n(-c2ccc(F)cc2)c2ccc(O)cc12)C(=O)O [Compound 30] | > 30 | 500 to 2000
O=C(O)C1CC2(C1)CC(c1c(C3CCOCC3)n(-c3ccc(F)c(Cl)c3)c3ccc(O)cc13)C2 (stereo not drawn) [Compound 31] | > 5 | < 500
O=C(O)[C@H]1CC2(C1)C[C@H](c1c(C3CCOCC3)n(-c3ccc(F)c(Cl)c3)c3ccc(O)cc31)C2 (stereo partly drawn) [Compound 32] | > 5 | < 500

The remaining lines, values ahead:

IC50 [1] [µM] | EC50 [2] [nM] | Compound
> 5 | < 500 | O=C(O)[C@H]1CC2(C1)C[C@H](c1c(C3CCOCC3)n(-c3ccc(F)c(Cl)c3)c3ccc(O)cc31)C2 (stereo partly drawn) [Compound 33]
> 30 | > 2000 | O=C(O)[C@H]1C[C@H](Cc2c(C3CCOCC3)n(-c3ccc(F)c(Cl)c3)c3ccc(O)cc23)C1 [Compound 34]
> 30 | > 2000 | O=C(O)[C@H]1C[C@@H](Cc2c(C3CCOCC3)n(-c3ccc(F)cc3)c3ccc(O)cc23)C1 [Compound 35]
> 30 | > 2000 | O=C(O)[C@H]1C[C@H](Cc2c(C3CCOCC3)n(-c3ccc(F)cc3)c3ccc(O)cc23)C1 [Compound 36]
> 5 | 500 to 2000 | O=C(O)[C@]1(C(F)(F)F)C[C@@H](c2c(C3CCOCC3)n(-c3ccc(F)c(Cl)c3)c3ccc(O)cc32)C1 [Compound 37]
> 30 | > 2000 | O=C(O)[C@]1(C(F)(F)F)C[C@H](c2c(C3CCOCC3)n(-c3ccc(F)c(Cl)c3)c3ccc(O)cc32)C1 [Compound 38]
> 30 | > 2000 | C[C@]1(C(=O)O)C[C@H](c2c(C3CCOCC3)n(-c3ccc(F)c(F)c3)c3ccc(O)cc32)C1 [Compound 39]
> 30 | > 2000 | C[C@]1(C(=O)O)C[C@@H](c2c(C3CCOCC3)n(-c3ccc(F)c(F)c3)c3ccc(O)cc32)C1 [Compound 40]
> 30 | 500 to 2000 | O=C(O)[C@H]1CC2(C1)C[C@H](c1c(C3CCOCC3)n(-c3ccc(F)c(F)c3)c3ccc(O)cc31)C2 (stereo partly drawn) [Compound 41]
> 30 | 500 to 2000 | O=C(O)[C@H]1CC2(C1)C[C@H](c1c(C3CCOCC3)n(-c3ccc(F)c(F)c3)c3ccc(O)cc31)C2 (stereo partly drawn) [Compound 42]
> 30 | > 2000 | Cc1cc(-n2c(C3CCS(=O)(=O)CC3)c([C@H]3C[C@@](C(=O)O)(C(F)(F)F)C3)c3cc(O)ccc32)ccc1F [Compound 43]

— patent US20230339915A1 (Vertex Pharmaceuticals Incorporated, priority 2020, published 2023)
